According to patent US20240109917A1 (ACTELION PHARMACEUTICALS LTD, priority 2020, published 2024):

Experiments:
[1] = biological target: His6-TEV-PDGFRβ (557-1016) (Homo sapiens (Human), UniProt P09619); assay: PDGFRβ HTRF Assay; format: biochemical; settings: read-out: PDGFR HTRF IC50
Summary of the method: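 Human PDGFRβ (557-1016) pre-incubated with compound for 30 min at RT in pH 7.5 HEPES/MgCl2/EGTA/Brij-35/DTT buffer. Reaction started with ATP and TK-biotin peptide, run 3 h at RT, then quenched with EDTA-containing Eu-cryptate antibody/streptavidin-XL665. HTRF 665/620 nm ratio read after 60 min; percent inhibition relative to DMSO and 10 μM imatinib controls.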

PDGFRβ = PDGFRβ (Rattus norvegicus (Rat), UniProt Q05030); assay: PDGFRβ Cellular Assay (PDGFRb P-Y751 HTRF in A10 cells stimulated with PDGF-BB); format: cell-based; settings: read-out: PDGFR Cellular IC50
Summary of the method: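 Rat A10 cells, plated overnight, were treated with compound for 3 hours, then stimulated with PDGF-BB (working stock 100 ng/mL in 10% FBS medium). After lysis, PDGFRβ P-Y751 was detected by HTRF.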

Sequence of His6-TEV-PDGFRβ (557-1016) (P09619 557-1016): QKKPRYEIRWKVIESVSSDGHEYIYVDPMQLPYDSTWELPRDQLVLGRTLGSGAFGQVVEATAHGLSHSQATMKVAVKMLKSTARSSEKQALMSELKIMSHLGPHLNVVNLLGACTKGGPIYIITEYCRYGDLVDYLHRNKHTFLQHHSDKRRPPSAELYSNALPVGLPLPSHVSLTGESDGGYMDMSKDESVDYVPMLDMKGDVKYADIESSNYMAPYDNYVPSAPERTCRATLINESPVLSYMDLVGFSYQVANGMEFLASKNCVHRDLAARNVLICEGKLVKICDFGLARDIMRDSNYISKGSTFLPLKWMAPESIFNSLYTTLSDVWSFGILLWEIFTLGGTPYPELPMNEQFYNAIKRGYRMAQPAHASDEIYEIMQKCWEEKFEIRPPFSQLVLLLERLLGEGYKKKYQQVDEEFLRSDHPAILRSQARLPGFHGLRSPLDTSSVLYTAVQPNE
Sequence of PDGFRβ (Q05030 32-1097): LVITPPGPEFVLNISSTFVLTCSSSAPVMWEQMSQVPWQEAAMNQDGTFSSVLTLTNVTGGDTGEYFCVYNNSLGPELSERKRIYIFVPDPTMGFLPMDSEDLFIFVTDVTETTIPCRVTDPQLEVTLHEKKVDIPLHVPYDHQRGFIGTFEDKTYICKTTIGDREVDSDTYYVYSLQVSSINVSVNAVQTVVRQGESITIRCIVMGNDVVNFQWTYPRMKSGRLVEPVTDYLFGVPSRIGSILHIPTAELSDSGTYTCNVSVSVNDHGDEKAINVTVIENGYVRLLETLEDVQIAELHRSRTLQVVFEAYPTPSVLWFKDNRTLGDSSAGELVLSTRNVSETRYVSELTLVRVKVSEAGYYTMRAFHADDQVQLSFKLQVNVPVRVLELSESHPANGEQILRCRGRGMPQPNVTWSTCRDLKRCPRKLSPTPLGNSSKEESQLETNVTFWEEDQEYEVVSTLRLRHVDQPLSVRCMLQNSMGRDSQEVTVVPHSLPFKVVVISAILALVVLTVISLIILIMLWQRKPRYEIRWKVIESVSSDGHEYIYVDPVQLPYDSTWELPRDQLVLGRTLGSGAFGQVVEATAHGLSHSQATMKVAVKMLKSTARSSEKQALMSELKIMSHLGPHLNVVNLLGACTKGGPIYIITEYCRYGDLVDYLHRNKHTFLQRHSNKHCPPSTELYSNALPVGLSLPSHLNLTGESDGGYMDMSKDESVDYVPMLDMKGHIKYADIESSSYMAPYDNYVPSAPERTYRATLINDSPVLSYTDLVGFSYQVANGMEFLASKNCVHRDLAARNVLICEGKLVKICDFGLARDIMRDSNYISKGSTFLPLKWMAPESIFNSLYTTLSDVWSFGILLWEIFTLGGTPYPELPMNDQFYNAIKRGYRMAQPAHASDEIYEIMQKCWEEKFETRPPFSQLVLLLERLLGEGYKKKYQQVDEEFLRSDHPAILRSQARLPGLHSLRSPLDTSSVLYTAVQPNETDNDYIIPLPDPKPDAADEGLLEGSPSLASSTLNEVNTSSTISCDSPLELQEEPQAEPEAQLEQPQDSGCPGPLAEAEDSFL

| Compound | IC50 [1] [nM] | IC50 (PDGFRβ) [nM] |
| --- | --- | --- |
| Cc1ncc(C(=O)NCCN2CCC(F)(F)CC2)cc1NC(=O)c1cnn2cc(-c3ccncc3)sc12 [Example 154, N-(5-((2-(4,4-difluoropiperidin-1-yl)ethyl)carbamoyl)-2-methylpyridin-3-yl)-2-(pyridin-4-yl)pyrazolo[5,1-b]thiazole-7-carboxamide] | 0.3 | 8.7 |
| Cc1ncc(C(=O)NCCN2CCCC2(C)C)cc1NC(=O)c1cnn2cc(-c3ccncc3)sc12 [Example 7, N-(5-((2-(2,2-dimethylpyrrolidin-1-yl)ethyl)carbamoyl)-2-methyl-pyridin-3-yl)-2-(pyridin-4-yl)pyrazolo[5,1-b]thiazole-7-carboxamide] | 0.5 | 15.8 |
| COCCN(CCNC(=O)c1cnc(C)c(NC(=O)c2cnn3cc(-c4cnn(C)c4)sc23)c1)CCOC [Example 128, N-(5-((2-(bis(2-methoxyethyl)amino)ethyl)carbamoyl)-2-methylpyridin-3-yl)-2-(1-methyl-1H-pyrazol-4-yl)pyrazolo[5,1-b]thiazole-7-carboxamide] | 0.9 | 46.8 |
| Cc1ncc(C(=O)NCCN2CC3CCC2CC3)cc1NC(=O)c1cnn2cc(-c3cccnc3)sc12 [Example 149, N-(5-((2-(2-azabicyclo[2.2.2]octan-2-yl)ethyl)carbamoyl)-2-methylpyridin-3-yl)-2-(pyridin-3-yl)pyrazolo[5,1-b]thiazole-7-carboxamide] | 0.3 | 36.2 |
| Cc1ncc(C(=O)NCCN2Cc3ncsc3C2)cc1NC(=O)c1cnn2cc(-c3cnn(C)c3)sc12 [Example 111, N-(5-((2-(4H-pyrrolo[3,4-d]thiazol-5 (6H)-yl)ethyl)carbamoyl)-2-methylpyridin-3-yl)-2-(1-methyl-1H-pyrazol-4-yl)pyrazolo[5,1-b]thiazole-7-carboxamide] | 1.1 | 294 |
| Cc1ncc(C(=O)NCCN2CCCC2(C)C)cc1NC(=O)c1cnn2cc(-c3cncnc3)sc12 [Example 139, N-(5-((2-(2,2-dimethylpyrrolidin-1-yl)ethyl)carbamoyl)-2-methylpyridin-3-yl)-2-(pyrimidin-5-yl)pyrazolo[5,1-b]thiazole-7-carboxamide] | 5.3 | 164 |
| Cc1ncc(C(=O)NCCN2CC3CCC2CC3)cc1NC(=O)c1cnn2cc(-c3ccncc3)sc12 [Example 148, N-(5-((2-(2-azabicyclo[2.2.2]octan-2-yl)ethyl)carbamoyl)-2-methylpyridin-3-yl)-2-(pyridin-4-yl)pyrazolo[5,1-b]thiazole-7-carboxamide] | 0.3 | 28.9 |
| Cc1ncc(C(=O)NCCN2CCC(F)(F)C2)cc1NC(=O)c1cnn2cc(-c3cnn(C)c3)sc12 [Example 120, N-(5-((2-(3,3-difluoropyrrolidin-1-yl)ethyl)carbamoyl)-2-methylpyridin-3-yl)-2-(1-methyl-1H-pyrazol-4-yl)pyrazolo[5,1-b]thiazole-7-carboxamide] | 0.4 | 9.3 |
| Cc1ncc(C(=O)NCCN2CCC3(CC3)C2)cc1NC(=O)c1cnn2cc(-c3ccccn3)sc12 [Example 160, N-(5-((2-(5-azaspiro[2.4]heptan-5-yl)ethyl)carbamoyl)-2-methylpyridin-3-yl)-2-(pyridin-2-yl)pyrazolo[5,1-b]thiazole-7-carboxamide] | 0.2 | 25.3 |
| Cc1ncc(C(=O)NCCN2CCCC2(C)C)cc1NC(=O)c1cnn2cc(-c3ccc(=O)[nH]n3)sc12 [Example 141, N-(5-((2-(2,2-dimethylpyrrolidin-1-yl)ethyl)carbamoyl)-2-methylpyridin-3-yl)-2-(6-oxo-1,6-dihydropyridazin-3-yl)pyrazolo[5,1-b]thiazole-7-carboxamide] | 1.8 | > 3000 |
| Cc1ncc(C(=O)NCCN2CCCOCC2)cc1NC(=O)c1cnn2cc(-c3cnn(C)c3)sc12 [Example 121, N-(5-((2-(1,4-oxazepan-4-yl)ethyl)carbamoyl)-2-methylpyridin-3-yl)-2-(1-methyl-1H-pyrazol-4-yl)pyrazolo[5,1-b]thiazole-7-carboxamide] | 0.4 | 80.4 |
| Cc1ncc(C(=O)NCCN2CCC23CCC3)cc1NC(=O)c1cnn2cc(-c3cn(C)nc3C)sc12 [Example 175, N-(5-((2-(1-azaspiro[3.3]heptan-1-yl)ethyl)carbamoyl)-2-methylpyridin-3-yl)-2-(1,3-dimethyl-1H-pyrazol-4-yl)pyrazolo[5,1-b]thiazole-7-carboxamide] | 0.5 | 16.6 |
| Cc1ncc(NC(=O)NCCC2CCN(C)CC2)cc1NC(=O)c1cnn2cc(-c3cnn(C)c3)sc12 [Example 108, 2-(1-methyl-1H-pyrazol-4-yl)-N-(2-methyl-5-(3-(2-(1-methylpiperidin-4-yl)ethyl)ureido)pyridin-3-yl)pyrazolo[5,1-b]thiazole-7-carboxamide] | 10.7 | > 3000 |
| COCCn1cc(-c2cn3ncc(C(=O)Nc4cc(C(=O)NCCN5CCC(F)(F)CC5)cnc4C)c3s2)cn1 [Example 165, N-(5-((2-(4,4-difluoropiperidin-1-yl)ethyl)carbamoyl)-2-methylpyridin-3-yl)-2-(1-(2-methoxyethyl)-1H-pyrazol-4-yl)pyrazolo[5,1-b]thiazole-7-carboxamide] | 0.6 | 11.4 |
| Cc1ncc(NC(=O)NCC2CCN(C)CC2)cc1NC(=O)c1cnn2cc(-c3cnn(C)c3)sc12 [Example 107, 2-(1-methyl-1H-pyrazol-4-yl)-N-(2-methyl-5-(3-((1-methylpiperidin-4-yl)methyl)ureido)pyridin-3-yl)pyrazolo[5,1-b]thiazole-7-carboxamide] | 13.2 | > 3000 |
| Cc1ncc(NC(=O)CCN2CCC3(CC3)C2)cc1NC(=O)c1cnn2cc(-c3cnn(C)c3)sc12 [Example 104, N-(5-(3-(5-azaspiro[2.4]heptan-5-yl)propanamido)-2-methylpyridin-3-yl)-2-(1-methyl-1H-pyrazol-4-yl)pyrazolo[5,1-b]thiazole-7-carboxamide] | 0.4 | 9.2 |
| Cc1ncc(NC(=O)NCC2CCN(C(C)C)CC2)cc1NC(=O)c1cnn2cc(-c3cnn(C)c3)sc12 [Example 109, N-(5-(3-((1-isopropylpiperidin-4-yl)methyl)ureido)-2-methylpyridin-3-yl)-2-(1-methyl-1H-pyrazol-4-yl)pyrazolo[5,1-b]thiazole-7-carboxamide] | 38.9 | > 3000 |
| Cc1ncc(C(=O)NCCN2CCCC2(C)C)cc1NC(=O)c1cnn2cc(-c3cn(C)cn3)sc12 [Example 163, N-(5-((2-(2,2-dimethylpyrrolidin-1-yl)ethyl)carbamoyl)-2-methylpyridin-3-yl)-2-(1-methyl-1H-imidazol-4-yl)pyrazolo[5,1-b]thiazole-7-carboxamide] | 0.3 | 160 |
| Cc1ncc(C(=O)NCCN2CCC3(CC3)C2)cc1NC(=O)c1cnn2cc(-c3cnn(C)c3)sc12 [Example 118, N-(5-((2-(5-azaspiro[2.4]heptan-5-yl)ethyl)carbamoyl)-2-methylpyridin-3-yl)-2-(1-methyl-1H-pyrazol-4-yl)pyrazolo[5,1-b]thiazole-7-carboxamide] | 0.3 | 55.5 |
| COCCn1cc(-c2cn3ncc(C(=O)Nc4cc(C(=O)NCCN5CC6CCC5CC6)cnc4C)c3s2)cn1 [Example 142, N-(5-((2-(2-azabicyclo[2.2.2]octan-2-yl)ethyl)carbamoyl)-2-methylpyridin-3-yl)-2-(1-(2-methoxyethyl)-1H-pyrazol-4-yl)pyrazolo[5,1-b]thiazole-7-carboxamide] | 0.5 | 71.7 |
| Cc1ncc(C(=O)NCCN2CC3CCC2CC3)cc1NC(=O)c1cnn2cc(-c3cnn(C4COC4)c3)sc12 [Example 144, N-(5-((2-(2-azabicyclo[2.2.2]octan-2-yl)ethyl)carbamoyl)-2-methylpyridin-3-yl)-2-(1-(oxetan-3-yl)-1H-pyrazol-4-yl)pyrazolo[5,1-b]thiazole-7-carboxamide] | 0.3 | 106 |
| Cc1ncc(C(=O)NCCN2CC(F)(F)C2)cc1NC(=O)c1cnn2cc(-c3cnn(C)c3)sc12 [Example 125, N-(5-((2-(3,3-difluoroazetidin-1-yl)ethyl)carbamoyl)-2-methylpyridin-3-yl)-2-(1-methyl-1H-pyrazol-4-yl)pyrazolo[5,1-b]thiazole-7-carboxamide] | 0.3 | 47.6 |
| Cc1ncc(C(=O)NCCN2CCC3(CC3)C2)cc1NC(=O)c1cnn2cc(-c3cnn(C)c3C)sc12 [Example 170, N-(5-((2-(5-azaspiro[2.4]heptan-5-yl)ethyl)carbamoyl)-2-methylpyridin-3-yl)-2-(1,5-dimethyl-1H-pyrazol-4-yl)pyrazolo[5,1-b]thiazole-7-carboxamide] | 0.3 | 33.7 |
| Cc1ncc(C(=O)NCCN2CCC23CCC3)cc1NC(=O)c1cnn2cc(-c3cnn(C)c3C)sc12 [Example 169, N-(5-((2-(1-azaspiro[3.3]heptan-1-yl)ethyl)carbamoyl)-2-methylpyridin-3-yl)-2-(1,5-dimethyl-1H-pyrazol-4-yl)pyrazolo[5,1-b]thiazole-7-carboxamide] | 0.3 | 15 |
| Cc1ncc(C(=O)NCCN2CCCC2(C)C)cc1NC(=O)c1cnn2cc(-c3ccn(C)n3)sc12 [Example 9, N-(5-((2-(2,2-dimethylpyrrolidin-1-yl)ethyl)carbamoyl)-2-methylpyridin-3-yl)-2-(1-methyl-1H-pyrazol-3-yl)pyrazolo[5,1-b]thiazole-7-carboxamide] | 0.3 | 16.8 |
